According to US10421761B2, “Compounds for kinase modulation, and indications therefor” (Plexxikon Inc., priority 2013, dated 2019):

Assay: Plasma exposure (PK analysis) in the xenograft efficacy study
Type: in vivo
Details: mouse, oral, COLO205 xenograft model, 25 mg/kg twice daily, read-out: plasma exposure, steady state AUC
Description: All animal studies were conducted in accordance with the Institute for Laboratory Animal Research Guide for the Care and Use of Laboratory Animals and the USDA Animal Welfare Act. The same formulation was used for both COL0205 and B9 xenograft studies. The powder of test compound was dissolved in pure N-methyl-2-pyrrolidone (NMP). Diluent consists of PEG400: TPGS:Poloxamer 407:Water (40:5:5:50). Before gavage administration, fresh stock of NMP compound solution (or NMP for vehicle) was thoroughly mixed with the diluents to make a uniform suspension. Dosing volume is 5 μl/g. On the last day of the efficacy study, blood samples were collected at 0, 2, 4, and 8 hrs after last dosing, 2 animals/time point, for PK analysis.

CCCS(=O)(=O)Nc1ccc(F)c(C(=O)c2c[nH]c3ncc(-c4ccc(Cl)cc4)cc23)c1F [vemurafenib]
AUC: 200 µg·h/mL
